Data as given in patent EP0101588A1, “Compositions comprising amino and diamino acid derivatives and use thereof as plant growth stimulants” (S.I.P.C.A.M. S.p.A. Società Italiana Prodotti Chimici e per …, priority 1982, dated 1984).
Counter-ions that a name gives are not always drawn.

How the values were obtained:
Type in all cases: in vivo
Italy grapevines = assay: Vineyard trial, applications mixed with fungicides; conditions: 1 g/100 m^2, 2 weekly applications before and 6 after flowering, mixed with fungicide mixtures; untreated control 234
[1] = system: thiosemicarbazide-treated rabbits with epileptic type syndromes; assay: Intramuscular injection in rabbits with epileptic type syndromes; conditions: 1 ml of 10% aqueous solution, as long as the level of the compound remains adequate
Description: Prepare an aqueous solution containing 10% pure N-carboxymethyl-gamma-aminobutyric acid disodium salt and autoclave for 2 h at 115°C.
Inject very slowly by intramuscular route 1 ml of the solution thus prepared in thiosemicarbazide-treated rabbits with epileptic type syndromes.

lettuce = assay: Field trial on lettuce, 4 weekly treatments; conditions: 2 g/100 m^2 per treatment, untreated control 18.0
San Marzano tomatoes = assay: Field trial on tomatoes, spraying before and after flowering; conditions: 3 g/100 m^2 per treatment, 2 treatments before flowering and 3 weekly after flowering; untreated control 321
Radish = assay: Greenhouse radish crop, spraying after emergence; conditions: 0.01 g/m^2 per treatment, two treatments at an interval of 4 days; for Radish crop roots only: untreated control 165; for Radish crop whole plants: untreated control 198
spinach = assay: Field trial on spinach, 4 weekly treatments; conditions: 2 g/100 m^2 per treatment, untreated control 8.3

**Q.** `O=C([O-])CCCNCC(=O)[O-].[Na+].[Na+]` [N-carboxymethyl gamma-amino-butyric acid disodium salt] was tested. Which Grape harvest (Italy grapevines) did it give?
**A.** The Grape harvest was 351 kg/100 m^2.

**Q.** What about the convulsions [1] of the same compound?
**A.** Its convulsions is “convulsions disappear”.

**Q.** And the “Harvest Lettuce” value (lettuce)?
**A.** Its value is 26.5 kg/100 m^2.

**Q.** What about the Fruit harvest (San Marzano tomatoes) of the same compound?
**A.** The Fruit harvest was 569 kg/100 m^2.

**Q.** And the “Radish crop roots only” value (Radish)?
**A.** The value was 280 g/m^2.

**Q.** What about the “Radish crop whole plants” value (Radish) of the same compound?
**A.** Its value is 350 g/m^2.

**Q.** What about the “Harvest Spinach” value (spinach) of the same compound?
**A.** The value was 12.6 kg/100 m^2.

**Q.** Which Grape harvest (Italy grapevines) does the source give for `NCCCCNCC(=O)[O-].[Na+]` [N-carboxymethyl-1,4-diamino-butane sodium salt] here?
**A.** The Grape harvest was 345 kg/100 m^2.

**Q.** And the “Harvest Lettuce” value (lettuce)?
**A.** Its value is 23.5 kg/100 m^2.

**Q.** And the Fruit harvest (San Marzano tomatoes)?
**A.** The Fruit harvest was 574 kg/100 m^2.

**Q.** And the “Radish crop roots only” value (Radish)?
**A.** Its value is 272 g/m^2.

**Q.** And the “Radish crop whole plants” value (Radish)?
**A.** Its value is 335 g/m^2.

**Q.** And the “Harvest Spinach” value (spinach)?
**A.** The value was 11.8 kg/100 m^2.

**Q.** Which Grape harvest (Italy grapevines) does the source give for `CC(NCCCC(=O)O)C(=O)O` (stereo not shown) [N-methylcarboxymethyl-gamma-aminobutyric acid disodium salt] here?
**A.** Its Grape harvest is 320 kg/100 m^2.

**Q.** And the “Harvest Lettuce” value (lettuce)?
**A.** Its value is 24.3 kg/100 m^2.

**Q.** And the Fruit harvest (San Marzano tomatoes)?
**A.** The Fruit harvest was 513 kg/100 m^2.

**Q.** And the “Radish crop roots only” value (Radish)?
**A.** The value was 262 g/m^2.

**Q.** And the “Radish crop whole plants” value (Radish)?
**A.** Its value is 321 g/m^2.

**Q.** What about the “Harvest Spinach” value (spinach) of the same compound?
**A.** Its value is 11.5 kg/100 m^2.
